Molecular target: T1, glucocorticoid receptor (Homo sapiens, UniProt P04150)
T1 construct: expressed in transfected cells
T1 sequence (P04150 524-758 limits assumed): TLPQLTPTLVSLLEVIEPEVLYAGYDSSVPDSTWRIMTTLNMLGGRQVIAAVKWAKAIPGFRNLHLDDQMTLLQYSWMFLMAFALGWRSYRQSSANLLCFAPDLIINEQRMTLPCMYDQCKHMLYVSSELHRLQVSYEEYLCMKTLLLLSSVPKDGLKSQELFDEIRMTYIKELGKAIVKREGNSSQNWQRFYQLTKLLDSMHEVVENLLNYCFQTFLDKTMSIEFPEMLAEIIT
Assay: Agonistic mode of action on the glucocorticoid receptor (CHO-Gal4/GR luciferase reporter cell line)
Assay type: cell-based
Conditions: range class observed in the agonistic assay or the antagonistic assay (CHO-Gal4/GR reporter cells); table does not say which mode applies per example
In short: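 CHO cells stably carrying GAL4 DBD–GR ligand-binding-domain fusion and GAL4-UAS firefly luciferase reporter, 5000 cells/well grown 24 h, then compounds added in Opti-MEM at 8 half-log concentrations from 10 μM to 0.003 μM (0.5% DMSO), quadruplicates. Agonist-induced luminescence read on FLIPR Tetra; EC50 calculated.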

SMILES | IC50 or EC50 (agonist or antagonist mode not specified) [nM]
Cc1c(-c2cccc3c(C)n[nH]c23)c(F)cc2c1-n1c(C)nnc1C(C)(C)N2 [Example 361, 7-Fluoro-1,4,4,9-tetramethyl-8-(3-methyl-1H-indazol-7-yl)-5H-[1,2,4]triazolo[4,3-a]quinoxaline] | 1000 to 15000
Cc1nnc2n1-c1c(cc(Cl)c(-c3cccc4c3cnn4C)c1F)NC2(C)C [Example 285, 7-Chloro-9-fluoro-1,4,4-trimethyl-8-(1-methyl-1H-indazol-4-yl)-5H-[1,2,4]triazolo[4,3-a]quinoxaline] | 1000 to 15000
Cc1c(-c2cc(Cl)cc3[nH]ccc23)c(F)cc2c1-n1c(C)nnc1C(C)(C)N2 [Example 513, 8-(6-Chloro-1H-indol-4-yl)-7-fluoro-1,4,4,9-tetramethyl-5H-[1,2,4]triazolo[4,3-a]quinoxaline] | 100 to 1000
CCc1c(-c2cccc3c2cnn3S(C)(=O)=O)c(F)cc2c1-n1c(C)nnc1C(C)(C)N2 [Example 51, 9-Ethyl-7-fluoro-1,4,4-trimethyl-8-(1-methylsulfonyl-1H-indazol-4-yl)-5H-[1,2,4]triazolo[4,3-a]quinoxaline] | 100 to 1000
Cc1cc2c(-c3c(F)cc4c(c3F)-n3c(C)nnc3C(C)(C)N4)cc(F)cc2[nH]1 [Example 5, 7,9-difluoro-8-(6-fluoro-2-methyl-1H-indol-4-yl)-1,4,4-trimethyl-4,5-dihydro-[1,2,4]triazolo[4,3-a]quinoxaline] | 100 to 1000
COc1c(-c2cccc3c(C)c[nH]c23)c(F)cc2c1-n1c(C)nnc1C(C)(C)N2 [Example 270, 7-Fluoro-9-methoxy-1,4,4-trimethyl-8-(3-methyl-1H-indol-7-yl)-5H-[1,2,4]triazolo[4,3-a]quinoxaline] | 100 to 1000
Cc1nnc2n1-c1c(cc(F)c(-c3cccc4[nH]ccc34)c1C(F)(F)F)NC2(C)C [Example 467, 7-Fluoro-8-(1H-indol-4-yl)-1,4,4-trimethyl-9-(trifluoromethyl)-5H-[1,2,4]triazolo[4,3-a]quinoxaline] | < 100
Cc1c[nH]c2c(-c3c(F)cc4c(c3F)-n3c(Cc5ccccc5)nnc3C(C)(C)N4)cc(F)cc12 [Example 67, 1-Benzyl-7,9-difluoro-8-(5-fluoro-3-methyl-1H-indol-7-yl)-4,4-dimethyl-5H-[1,2,4]triazolo[4,3-a]quinoxaline] | 1000 to 15000
Cc1c(-c2cccc3c(C)c[nH]c23)c(Cl)cc2c1-n1c(C)nnc1C(C)(C)N2 [Example 358, 7-Chloro-1,4,4,9-tetramethyl-8-(3-methyl-1H-indol-7-yl)-5H-[1,2,4]triazolo[4,3-a]quinoxaline] | < 100
Cc1nnc2n1-c1c(cc(F)c(-c3cccc4[nH]ccc34)c1F)NC2(C)C [Example 445, 7,9-Difluoro-8-(1H-indol-4-yl)-1,4,4-trimethyl-5H-[1,2,4] triazolo[4,3-a]quinoxaline] | < 100
Cc1c[nH]c2c(-c3c(F)cc4c(c3C3CC3)-n3c(C)nnc3C(C)(C)N4)cccc12 [Example 463, 9-Cyclopropyl-7-fluoro-1,4,4-trimethyl-8-(3-methyl-1H-indol-7-yl)-5H-[1,2,4]triazolo[4,3-a] quinoxaline] | < 100
COc1cc2c(c(F)c1-c1cccc3c1ccn3S(C)(=O)=O)-n1c(C)nnc1C(C)(C)N2 [Example 263, 9-Fluoro-7-methoxy-1,4,4-trimethyl-8-(1-methylsulfonyl-1H-indol-4-yl)-5H-[1,2,4]triazolo[4,3-a]quinoxaline] | 1000 to 15000
CC#Cc1c[nH]c2c(-c3c(F)cc4c(c3C)-n3c(C)nnc3C(C)(C)N4)cccc12 [Example 28, 7-fluoro-1,4,4,9-tetramethyl-8-(3-(prop-1-yn-1-yl)-1H-indol-7-yl)-4,5-dihydro-[1,2,4]triazolo[4,3-a]quinoxaline] | < 100
Cc1nnc2n1-c1c(cc(F)c(-c3cccc4c3ccn4S(=O)(=O)C3CC3)c1F)NC2(C)C [Example 205, 8-[1-(Cyclopropylsulfonyl)-1H-indol-4-yl]-7,9-difluoro-1,4,4-trimethyl-5H-[1,2,4]triazolo[4,3-a]quinoxaline] | 100 to 1000
Cc1c[nH]c2c(-c3c(F)cc4c(c3F)-n3c(Cc5ccccc5)nnc3C(C)(C)N4)cccc12 [Example 68, 1-Benzyl-7,9-difluoro-4,4-dimethyl-8-(3-methyl-1H-indol-7-yl)-5H-[1,2,4]triazolo[4,3-a]quinoxaline] | 100 to 1000
Cc1nnc2n1-c1c(cc(F)c(-c3ccc(F)c4[nH]ccc34)c1C(F)(F)F)NC2(C)C [Example 505, 7-Fluoro-8-(7-fluoro-1H-indol-4-yl)-1,4,4-trimethyl-9-(trifluoromethyl)-5H-[1,2,4]triazolo[4,3-a]quinoxaline] | 100 to 1000
COCCn1ccc2c(-c3c(C(F)F)cc4c(c3F)-n3c(C)nnc3C(C)(C)N4)cccc21 [Example 295, 7-(Difluoro-methyl)-9-fluoro-8-[1-(2-methoxy-ethyl)-1H-indol-4-yl]-1,4,4-trimethyl-5H-[1,2,4]triazolo[4,3-a]quinoxaline] | 1000 to 15000
Cc1c(-c2cccc3c2ccn3C2CC2)c(F)cc2c1-n1c(C)nnc1C(C)(C)N2 [Example 27, 8-(1-cyclopropyl-1H-indol-4-yl)-7-fluoro-1,4,4,9-tetramethyl-4,5-dihydro-[1,2,4]triazolo[4,3-a]quinoxaline] | < 100
CCS(=O)(=O)n1ccc2c(-c3c(F)cc4c(c3OC)-n3c(C)nnc3C(C)(C)N4)cc(F)cc21 [Example 362, 8-[1-(Ethylsulfonyl)-6-fluoro-1H-indol-4-yl]-7-fluoro-9-methoxy-1,4,4-trimethyl-5H-[1,2,4]triazolo[4,3-a]quinoxaline] | < 100

Now from value to compound:

IC50 or EC50 (agonist or antagonist mode not specified) [nM] | SMILES
1000 to 15000 | CCc1nnc2n1-c1c(cc(F)c(-c3c(F)ccc4[nH]ccc34)c1C)NC2(C)C [Example 244, 1-Ethyl-7-fluoro-8-(5-fluoro-1H-indol-4-yl)-4,4,9-trimethyl-5H-[1,2,4]triazolo[4,3-a]quinoxaline]
< 100 | Cc1nnc2n1-c1c(cc(F)c(-c3c(F)ccc4[nH]ccc34)c1F)NC2(C)C [Example 214, 7,9-Difluoro-8-(5-fluoro-1H-indol-4-yl)-1,4,4-trimethyl-5H-[1,2,4]triazolo[4,3-a]quinoxaline]
1000 to 15000 | COCCn1ccc2c(-c3c(OC(F)F)cc4c(c3F)-n3c(C)nnc3C(C)(C)N4)cc(F)cc21 [Example 394, 7-(Difluoro-methoxy)-9-fluoro-8-[6-fluoro-1-(2-methoxy-ethyl)-1H-indol-4-yl]-1,4,4-trimethyl-5H-[1,2,4]triazolo[4,3-a]quinoxaline]
100 to 1000 | Cc1nnc2n1-c1c(cc(F)c(-c3cc(F)cc4cc[nH]c34)c1C(F)F)NC2(C)C [Example 515, 9-(Difluoro-methyl)-7-fluoro-8-(5-fluoro-1H-indol-7-yl)-1,4,4-trimethyl-5H-[1,2,4]triazolo[4,3-a] quinoxaline]
100 to 1000 | COc1cc(-c2c(F)cc3c(c2C(F)(F)F)-n2c(C)nnc2C(C)(C)N3)c2ccn(S(C)(=O)=O)c2c1 [Example 536, 7-Fluoro-8-(6-methoxy-1-methylsulfonyl-1H-indol-4-yl)-1,4,4-trimethyl-9-(trifluoro-methyl)-5H-[1,2,4]triazolo [4,3-a]quinoxaline]
< 100 | Cc1nnc2n1-c1c(cc(F)c(-c3cccc4c3ccn4S(=O)(=O)CC3CC3)c1F)NC2(C)C [Example 210, 8-[1-(Cyclopropyl-methylsulfonyl)-1H-indol-4-yl]-7,9-difluoro-1,4,4-trimethyl-5H-[1,2,4]triazolo[4,3-a]quinoxaline]
100 to 1000 | COc1c(-c2cccc3c2ccn3C)c(F)cc2c1-n1c(C)nnc1C(C)(C)N2 [Example 487, 7-Fluoro-9-methoxy-1,4,4-trimethyl-8-(1-methyl-1H-indol-4-yl)-5H-[1,2,4]triazolo[4,3-a] quinoxaline]
100 to 1000 | COc1c(-c2cccc3c2cnn3C)c(F)cc2c1-n1c(C)nnc1C(C)(C)N2 [Example 264, 7-Fluoro-9-methoxy-1,4,4-trimethyl-8-(1-methyl-1H-indazol-4-yl)-5H-[1,2,4]triazolo[4,3-a]quinoxaline]
1000 to 15000 | COc1cc2c(c(F)c1-c1cccc3[nH]ccc13)-n1c(C)nnc1C(C)(C)N2 [Example 256, 9-Fluoro-8-(1H-indol-4-yl)-7-methoxy-1,4,4-trimethyl-5H-[1,2,4]triazolo[4,3-a]quinoxaline]
100 to 1000 | Cc1c(-c2cccc3c2cnn3S(C)(=O)=O)ccc2c1-n1c(C)nnc1C(C)(C)N2 [Example 457, 1,4,4,9-Tetramethyl-8-(1-methylsulfonyl-1H-indazol-4-yl)-5H-[1,2,4]triazolo[4,3-a] quinoxaline]
100 to 1000 | COCCn1ccc2c(-c3c(Cl)cc4c(c3C)-n3c(C)nnc3C(C)(C)N4)cccc21 [Example 338, 7-Chloro-8-[1-(2-methoxy-ethyl)-1H-indol-4-yl]-1,4,4,9-tetramethyl-5H-[1,2,4]triazolo[4,3-a]quinoxaline]
